Ki data for seven molecules are collected here from patent US8952157B2, “Apoptosis-inducing agents for the treatment of cancer and immune and autoimmune diseases” (AbbVie Inc., priority 2008, dated 2015).

Chain of GST-Bcl-2 (P10415 whole entry): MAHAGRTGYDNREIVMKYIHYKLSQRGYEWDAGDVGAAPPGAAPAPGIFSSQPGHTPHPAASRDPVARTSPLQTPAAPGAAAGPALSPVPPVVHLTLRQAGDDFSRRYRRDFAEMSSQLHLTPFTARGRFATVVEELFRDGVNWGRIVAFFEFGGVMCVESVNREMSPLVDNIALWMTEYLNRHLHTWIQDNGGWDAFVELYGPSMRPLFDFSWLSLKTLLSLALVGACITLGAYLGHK

One assay has as its target GST-Bcl-2 (Homo sapiens (Human), UniProt P10415). The assay is described as follows: Time Resolved-Fluorescence Resonance Energy Transfer (TR-FRET) Bcl-2 binding assay.
Settings: not given
A digest of the protocol: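 Ki values derived from TR-FRET displacement of F-Bak peptide from GST-Bcl-2, detected with Tb-labelled anti-GST antibody (ex 340, em 520/495 nm). Compound dilution series started at 50 μM (2× starting concentration); room-temperature incubation 3 hours.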
For orientation: TR-FRET usually uses a lanthanide donor and a delayed reading to cut background.
As to `CC1(C)CCC(CN2CCN(c3ccc(C(=O)NS(=O)(=O)c4ccc(N[C@H]5CC[C@H](N6CCOCC6)CC5)c([N+](=O)[O-])c4)c(Oc4cc5cc[nH]c5cc4F)c3)CC2)=C(c2ccc(Cl)cc2)C1` [Example 234, Trans-4-(4-{[2-(4-chlorophenyl)-4,4-dimethylcyclohex-1-en-1-yl]methyl}piperazin-1-yl)-2-[(6-fluoro-1H-indol-5-yl)oxy]-N-({4-[(4-morpholin-4-ylcyclohexyl)amino]-3-nitrophenyl}sulfonyl)benzamide], the Ki (in general, the equilibrium dissociation constant of an inhibitor or competing ligand from its target) came out at 0.099 nM.

Staying with this assay, now noted: GST-Bcl-2 1 nM, F-Bak peptide probe 100 nM, Tb-anti-GST antibody 1 nM; Ki by Wang's equation.
`CC1(C)CCC(CN2CCN(c3ccc(C(=O)NS(=O)(=O)c4ccc(NC[C@@H]5CCCOC5)c([N+](=O)[O-])c4)c(Oc4cc5cc[nH]c5cc4F)c3)CC2)=C(c2ccc(Cl)cc2)C1` [Example 258, 4-(4-{[2-(4-chlorophenyl)-4,4-dimethylcyclohex-1-en-1-yl]methyl}piperazin-1-yl)-2-[(6-fluoro-1H-indol-5-yl)oxy]-N-[(3-nitro-4-{[(3S)-tetrahydro-2H-pyran-3-ylmethyl]amino}phenyl)sulfonyl]benzamide] yielded a Ki of 0.083 nM.
Same read-out and setting: the value for `CC1(C)CCC(CN2CCN(c3ccc(C(=O)NS(=O)(=O)c4ccc(NCC5CCOCC5)c([N+](=O)[O-])c4)c(Oc4cc(N)ncc4Br)c3)CC2)=C(c2ccc(Cl)cc2)C1` [Example 395, 2-[(2-amino-5-bromopyridin-4-yl)oxy]-4-(4-{[2-(4-chlorophenyl)-4,4-dimethylcyclohex-1-en-1-yl]methyl}piperazin-1-yl)-N-({3-nitro-4-[(tetrahydro-2H-pyran-4-ylmethyl)amino]phenyl}sulfonyl)benzamide] was 0.077 nM.
Regarding `CC1(C)CCC(CN2CCN(c3ccc(C(=O)NS(=O)(=O)c4ccc(NCC5CCOCC5)c([N+](=O)[O-])c4)c(Oc4ccc(NS(C)(=O)=O)nc4)c3)CC2)=C(c2ccc(Cl)cc2)C1` [Example 356, 4-(4-{[2-(4-chlorophenyl)-4,4-dimethylcyclohex-1-en-1-yl]methyl}piperazin-1-yl)-2-({6-[(methylsulfonyl)amino]pyridin-3-yl}oxy)-N-({3-nitro-4-[(tetrahydro-2H-pyran-4-ylmethyl)amino]phenyl}sulfonyl)benzamide], the affinity, expressed as Ki, was 2.82 nM.
Same read-out and setting: the value for `CN1CCC(Nc2ccc(S(=O)(=O)NC(=O)c3ccc(N4CCN(CC5=C(c6ccc(Cl)cc6)CCCCC5)CC4)cc3Oc3ccccc3Cl)cc2[N+](=O)[O-])CC1` [Example 56, 2-(2-chlorophenoxy)-4-(4-((2-(4-chlorophenyl)cyclohept-1-en-1-yl)methyl)piperazin-1-yl)-N-((4-((1-methylpiperidin-4-yl)amino)-3-nitrophenyl)sulfonyl)benzamide] was 0.106 nM; that for `CC1(C)CCC(CN2CCN(c3ccc(C(=O)NS(=O)(=O)c4cnc(OCC5(F)CCN(C(CF)CF)CC5)c(C(F)(F)F)c4)c(Oc4cnc(N)c(Cl)c4)c3)CC2)=C(c2ccc(Cl)cc2)C1` [Example 405, 2-[(6-amino-5-chloropyridin-3-yl)oxy]-4-(4-{[2-(4-chlorophenyl)-4,4-dimethylcyclohex-1-en-1-yl]methyl}piperazin-1-yl)-N-{[6-({4-fluoro-1-[2-fluoro-1-(fluoromethyl)ethyl]piperidin-4-yl}methoxy)-5-(trifluoromethyl)pyridin-3-yl]sulfonyl}benzamide] was 0.354 nM.
The molecule `O=C(NS(=O)(=O)c1ccc(NCC2CCOCC2)c([N+](=O)[O-])c1)c1ccc(N2CCN(Cc3ccccc3-c3ccc(Cl)cc3)CC2)cc1Oc1cccc(N2CCOCC2)c1` [Example 89, 4-(4-((4′-chloro-1,1′-biphenyl-2-yl)methyl)piperazin-1-yl)-2-(3-morpholin-4-ylphenoxy)-N-((3-nitro-4-((tetrahydro-2H-pyran-4-ylmethyl)amino)phenyl)sulfonyl)benzamide] displayed an inhibition constant (Ki) of 6.11 nM. This Ki is about 17-fold higher than that of the molecule before.
